Data published in publication PMC5653977 (EMBO Molecular Medicine, 2017).
Structures can show the parent of a compound that is named as a salt. Where a SMILES comes first, the peptide text is derived from it. [ ]: non-standard residue; d: D form. pGlu = O=C1CC[C@@H](C(=O)O)N1; Thz = O=C(O)[C@@H]1CSCN1

Tested on: NRG1-ERBB4 signaling
Assay: Nrg1-ERBB4-PIK3R1 split TEV co-culture compound screen of the NIH Clinical Collection
Format: cell-based, human
Conditions: not given

Structure (SMILES)	Z-SCORE
Oc1ccc2c3c1O[C@H]1[C@@H](O)CC[C@@]4(O)[C@@H](C2)N(CC2CCC2)CC[C@]314 [Nalbuphine]	-1.86

Same assay, conditions: NIH Clinical Collection NCC-003 raw data; compounds ranked by Z-score; 'flagged' given instead of a Z-score

Structure (SMILES)	Z-SCORE
CCOC(=O)C1=C(C)NC(C)=C(C(=O)OC)C1c1cccc([N+](=O)[O-])c1 (stereo not shown) [NITRENDIPINE]	-1.82
Clc1ccc(CO/N=C(\Cn2ccnc2)c2ccc(Cl)cc2Cl)c(Cl)c1 [OXICONAZOLE NITRATE]	-1.71
Cl.O=C1[C@H]2CCCC[C@H]2C(=O)N1CCCCN1CCN(c2nsc3ccccc23)CC1 [PEROSPIRONE HCl]	-1.42
O=C1CC[C@@H](C(=O)N2CSC[C@H]2C(=O)O)N1 [PIDOTIMOD] ([pGlu]-[Thz]-OH)	-1.2
CC(=O)[C@H]1CC[C@H]2[C@@H]3CCC4=CC(=O)CC[C@]4(C)[C@H]3CC[C@]12C [PROGESTERONE]	-1.2

Same assay, conditions: compound screen of the NIH Clinical Collection, sheet raw data NCC-003; compounds ranked by Z-score

Structure (SMILES)	Z-SCORE
CNC(=C[N+](=O)[O-])NCCSCc1csc(CN(C)C)n1 [NIZATIDINE]	-0.53
CCCCN1CCCC1CNC(=O)c1cc(C#N)c2ccccc2c1OC (stereo not shown) [Nafadotride]	-0.24
Oc1ccc2c3c1O[C@H]1c4[nH]c5ccccc5c4C[C@@]4(O)[C@@H](C2)N(CC2CC2)CC[C@]314 [Naltrindole]	-0.41
CCc1nn(CCCN2CCN(c3cccc(Cl)c3)CC2)c(=O)n1CCOc1ccccc1 [Nefazodone]	-0.63
CN1C(=O)CN=C(c2ccccc2)c2cc([N+](=O)[O-])ccc21 [Nimetazepam]	0.16
O=C1CN=C(c2ccccc2)c2cc([N+](=O)[O-])ccc2N1 [Nitrazepam]	-0.23
COc1ccc(-c2cc(=O)c3c(OC)c(OC)c(OC)c(OC)c3o2)cc1OC [Nobiletin]	-0.05
c1cncc([C@@H]2CCCN2)c1 [Nornicotine]	0.27
Cc1cc2c(s1)Nc1ccccc1N=C2N1CCN(C)CC1 [OLANZAPINE]	-0.89
CCCc1nc(C(C)(C)O)c(C(=O)OCc2oc(=O)oc2C)n1Cc1ccc(-c2ccccc2-c2nnn[nH]2)cc1 [OLMESARTAN MEDOXOMIL]	0.84
CN(C)CC/C=C1/c2ccccc2COc2ccc(CC(=O)O)cc21 [OLOPATADINE HCl]	0.55
COc1ccc2[nH]c([S+]([O-])Cc3ncc(C)c(OC)c3C)nc2c1 (stereo not shown) [OMEPRAZOLE]	-0.26
Cc1nccn1CC1CCc2c(c3ccccc3n2C)C1=O.Cl (stereo not shown) [ONDANSETRON HYDROCHLORIDE]	0.51
CCCCCCCCCCC[C@@H](C[C@@H]1OC(=O)[C@H]1CCCCCC)OC(=O)[C@H](CC(C)C)NC=O [ORLISTAT]	0.19
COc1cc(C)c(Cc2cnc(N)nc2N)cc1OC [ORMETOPRIM]	1.63
Cc1ncc([N+](=O)[O-])n1CC(O)CCl (stereo not shown) [ORNIDAZOLE]	2.22
O=C(O)CCc1nc(-c2ccccc2)c(-c2ccccc2)o1 [OXAPROZIN]	0.6
CC[N+](C)(CC)CCOC(=O)C(O)(c1ccccc1)C1CCCCC1 (stereo not shown) [OXYPHENONIUM BROMIDE]	-0.45
C[C@]12C/C(=C/O)C(=O)C[C@@H]1CC[C@@H]1[C@@H]2CC[C@@]2(C)[C@H]1CC[C@]2(C)O [Oxymetholone]	1.79
Cl.O=C(O)/C=C/c1ccc(Cn2ccnc2)cc1 [Ozagrel hydrochloride]	0.36
O=C1c2cccc3c2[C@H](CCC3)CN1[C@@H]1CN2CCC1CC2 [PALONOSETRON HCl]	0.77

Structure (SMILES)	Z-SCORE
COc1ccnc(C[S+]([O-])c2nc3cc(OC(F)F)ccc3[n-]2)c1OC.[Na+] (stereo not shown) [PANTOPRAZOLE SODIUM SALT]	1.42
CCC(=O)[N-]S(=O)(=O)c1ccc(-c2c(-c3ccccc3)noc2C)cc1.[Na+] [PARECOXIB Na]	-0.3
C[C@H]1COc2c(C3(N)CC3)c(F)cc3c(=O)c(C(=O)O)cn1c23 [PAZUFLOXACIN]	-0.48
Cc1sc(N)c(C(=O)c2cccc(C(F)(F)F)c2)c1C [PD 81723]	0.13
Nc1nc2c(ncn2CCC(CO)CO)c(=O)[nH]1 [PENCICLOVIR]	-0.01
CCCN1C[C@H](CSC)C[C@@H]2c3cccc4[nH]cc(c34)C[C@H]21 [PERGOLIDE MESYLATE]	-0.4
c1ccc2c(c1)Nc1ccccc1S2 [PHENOTHIAZINE]	-0.03
NC(=O)OCCCc1ccccc1 [PHENPROBAMATE]	-0.62
OC[C@H]1O[C@@H](Oc2cc(O)cc(/C=C/c3ccc(O)cc3)c2)[C@H](O)[C@@H](O)[C@@H]1O [PICEID]	0.85
CC[C@@H]1C(=O)OC[C@@H]1Cc1cncn1C [PILOCARPINE HYDROCHLORIDE]	-0.77
CCc1ccc(CCOc2ccc(CC3SC(=O)NC3=O)cc2)nc1 (stereo not shown) [PIOGLITAZONE HCl]	-0.64
Cc1nc2ccccn2c(=O)c1CCN1CCC(C(=O)c2ccc(F)cc2)CC1 [PIRENPERONE]	1.82
CCCN[C@H]1CCc2nc(N)sc2C1.Cl [PRAMIPEXOLE HCl]	-0.74
CC[C@H](C)C(=O)O[C@H]1C[C@H](O)C=C2C=C[C@H](C)[C@H](CC[C@@H](O)C[C@@H](O)CC(=O)O)[C@H]21 [PRAVASTATIN Sodium]	-0.44
CNNCc1ccc(C(=O)NC(C)C)cc1 [PROCARBAZINE HYDROCHLORIDE]	0.52
COc1cc(/C=C/c2ccc(O)cc2)cc(OC)c1 [PTEROSTILBENE]	-0.71
CC(=O)O[C@H]1C[C@@H]2CC[C@@H]3[C@H](CC[C@@]4(C)[C@H]3C[C@H]([N+]3(C)CCCCC3)[C@@H]4OC(C)=O)[C@@]2(C)C[C@@H]1[N+]1(C)CCCCC1 [Pancuronium]	-0.32
Fc1ccc([C@@H]2CCNC[C@H]2COc2ccc3c(c2)OCO3)cc1 [Paroxetine, reference compound]	2.09
NC1=NC(=O)C(c2ccccc2)O1 (stereo not shown) [Pemoline]	-0.71
CC(=O)CCCCn1c(=O)c2c(ncn2C)n(C)c1=O [Pentoxifylline]	-0.43

Same assay, conditions: compound screen of the NIH Clinical Collection, sheet raw data NCC-003; compounds ranked by Z-score; listed as PAROXETINE

Structure (SMILES)	Z-SCORE
Fc1ccc([C@@H]2CCNC[C@H]2COc2ccc3c(c2)OCO3)cc1 [Paroxetine, reference compound]	1.3

Same assay, conditions: compounds at 10 μM, 24 h; PC12 split TEV assay cells co-cultured with Nrg1-expressing PC12 cells; analysed with cellHTS2

Structure (SMILES)	Z-SCORE
O=C1CN(/N=C/c2ccc([N+](=O)[O-])o2)C(=O)N1 [NITROFURANTOIN, reference compound]	-0.02
CCn1cc(C(=O)O)c(=O)c2cc(F)c(N3CCNCC3)cc21 [NORFLOXACIN, reference compound]	-0.08
N[C@H](Cc1cc(I)c(Oc2ccc(O)c(I)c2)c(I)c1)C(=O)O [NSC46046, reference compound]	-1.87
CCn1cc(C(=O)O)c(=O)c2ccc(C)nc21 [Nalidixic Acid, reference compound]	0.31
O=C(O)c1cccnc1 [Nicotinic Acid, reference compound]	-0.31
Cc1ccccc1C(OCCN(C)C)c1ccccc1 (stereo not shown) [Norflex, reference compound]	0.74
CC(C)N(CCC(C(N)=O)(c1ccccc1)c1ccccn1)C(C)C (stereo not shown) [Norpace, reference compound]	0.73
CNCCCN1c2ccccc2CCc2ccccc21 [Norpramin, reference compound]	-3.45
CCN(CC)CCOC(=O)c1ccc(N)cc1 [Novocain, reference compound]	-0.44
CC1COc2c(N3CCN(C)CC3)c(F)cc3c(=O)c(C(=O)O)cn1c23 (stereo not shown) [OFLOXACIN, reference compound]	0.8
CCN(CC)CC#CCOC(=O)C(O)(c1ccccc1)C1CCCCC1 (stereo not shown) [OXYBUTYNIN CHLORIDE, reference compound]	-0.59
Cc1nccn1CC1CCc2c(c3ccccc3n2C)C1=O (stereo not shown) [Ondansetron, reference compound]	0.12
CN(C)[C@@H]1C(O)=C(C(N)=O)C(=O)[C@@]2(O)C(O)=C3C(=O)c4c(O)cccc4[C@@](C)(O)[C@H]3[C@H](O)[C@@H]12 [Oxytetracycline hydrochloride, reference compound]	0.67
OCCN1CCN(CCCN2c3ccccc3Sc3ccc(Cl)cc32)CC1 [PERPHENAZINE, reference compound]	0.23
Cc1ccc(N(CC2=NCCN2)c2cccc(O)c2)cc1 [PHENTOLAMINE HCL, reference compound]	-1.17
CC(C)NCC(O)COc1cccc2[nH]ccc12 (stereo not shown) [PINDOLOL, reference compound]	6.52
CCN1CCN(C(=O)N[C@@H](C(=O)N[C@@H]2C(=O)N3[C@@H]2SC(C)(C)[C@@H]3C(=O)O)c2ccccc2)C(=O)C1=O [PIPERACILLIN SODIUM SALT, reference compound]	0.05
O=C(C1CCCCC1)N1CC(=O)N2CCc3ccccc3C2C1 (stereo not shown) [PRAZIQUANTEL, reference compound]	0.38
CC(=O)OCC(=O)[C@@]1(O)CC[C@H]2[C@@H]3CCC4=CC(=O)C=C[C@]4(C)[C@H]3[C@@H](O)C[C@@]21C [PREDNISOLONE ACETATE, reference compound]	-0.58
CCCNC(C)C(=O)Nc1ccccc1C (stereo not shown) [PRILOCAINE HYDROCHLORIDE, reference compound]	0.68
C[n+]1ccccc1/C=N/O.[Cl-] [PYRIDINE-2-ALDOXIME METHOCHLORIDE, reference compound]	2.7
CNCCC=C1c2ccccc2CCc2ccccc21 [Pamelor, reference compound]	0.41
Fc1ccc([C@@H]2CCNC[C@H]2COc2ccc3c(c2)OCO3)cc1 [Paroxetine, reference compound]	-0.28
CC1(C)S[C@@H]2[C@H](NC(=O)COc3ccccc3)C(=O)N2[C@H]1C(=O)O [Penicillin V, reference compound]	0.66
CC1(C)S[C@@H]2[C@H](NC(=O)Cc3ccccc3)C(=O)N2[C@H]1C(=O)O [Pfizerpen, reference compound]	-0.19
NNCCc1ccccc1 [Phenelzine, reference compound]	-0.21
CC(CN1c2ccccc2Sc2ccccc21)N(C)C (stereo not shown) [Phenergan, reference compound]	0.41
CC1=C(C/C=C(\C)CCC[C@H](C)CCC[C@H](C)CCCC(C)C)C(=O)c2ccccc2C1=O [Phylloquinone, reference compound]	-0.1
